Laboratory results published in ChEMBL document CHEMBL6096682, “Discovery of D-Ring-Contracted Artemisinin as a Potent Hydrophobic Tag for Targeted Protein Degradation” (J Med Chem, 2025).
pIC50: −log10 of the molar value. Activity calls are given as the source filed them. No cut-off for these calls is given here.

Key:
MCF7 [1] = assay: Antiproliferative activity against human MCF7 cells assessed as reduction in cell viability incubated for 48 hrs by MTT assay relative to control; type: functional
MCF7 [2] = assay: Antiproliferative activity against human MCF7 cells overexpressing ER-alpha Y537S mutant assessed as reduction in cell viability incubated for 48 hrs by MTT assay; type: functional, cell-based; conditions: MCF7, 48 h
MCF7 [3] = assay: Antiproliferative activity against human MCF7 cells assessed as reduction in cell viability incubated for 48 hrs by MTT assay; type: functional, cell-based; conditions: MCF7, 48 h
MCF7 [4] = assay: Antiproliferative activity against human MCF7 cells overexpressing EGFR assessed as reduction in cell viability incubated for 48 hrs by MTT assay; type: functional, cell-based; conditions: MCF7, 48 h
[5] = target: T1, Estrogen receptor (Homo sapiens) (UniProt P03372); assay: HyT degrader activity at ER-alpha in human MCF7 cells assessed as induction of ER-alpha degradation by measuring decrease in ER-alpha level at 10 uM incubated for 48 hrs by western blot analysis; type: cell-based; set-up: scale not given: the % may be the effect or the level left
T1 sequence (whole entry): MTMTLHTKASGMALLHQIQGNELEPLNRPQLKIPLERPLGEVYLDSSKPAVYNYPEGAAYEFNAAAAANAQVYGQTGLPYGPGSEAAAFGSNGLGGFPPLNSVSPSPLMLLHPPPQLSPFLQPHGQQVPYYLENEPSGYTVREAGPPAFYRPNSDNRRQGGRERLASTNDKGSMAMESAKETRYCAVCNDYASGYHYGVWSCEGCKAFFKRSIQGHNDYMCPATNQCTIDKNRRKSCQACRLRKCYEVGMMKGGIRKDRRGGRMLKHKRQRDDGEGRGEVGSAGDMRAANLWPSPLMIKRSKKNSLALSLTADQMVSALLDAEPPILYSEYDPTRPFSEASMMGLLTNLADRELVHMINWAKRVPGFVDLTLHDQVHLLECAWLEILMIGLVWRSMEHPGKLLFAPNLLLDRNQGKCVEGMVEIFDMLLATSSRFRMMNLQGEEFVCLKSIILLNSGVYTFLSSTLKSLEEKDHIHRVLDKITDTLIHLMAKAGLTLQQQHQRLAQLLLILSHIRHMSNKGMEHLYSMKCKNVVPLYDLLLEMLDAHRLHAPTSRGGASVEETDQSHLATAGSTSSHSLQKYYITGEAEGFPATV

[6] = target: T1, Estrogen receptor (Homo sapiens); assay: HyT degrader activity at ER-alpha in human MCF7 cells assessed as induction of ER-alpha degradation by measuring decrease in ER-alpha level at 10 uM incubated for 48 hrs followed by drug wash-out and measured after 24 hrs by western blot analysis; type: cell-based
MCF7 [7] = assay: Antiproliferative activity against human MCF7 cells overexpressing EGFR assessed as reduction in cell viability incubated for 48 hrs by MTT assay relative to control; type: functional
MCF7 [8] = assay: Antiproliferative activity against human MCF7 cells overexpressing ER-alpha Y537S mutant assessed as reduction in cell viability incubated for 48 hrs by MTT assay relative to control; type: functional
MCF7 [9] = assay: Antitumor activity against human MCF7 cells xenografted in Balb/c mouse assessed as inhibition of tumor growth at 5 mg/kg, iv administered every 3 days and measured for 21 days; type: functional; conditions: MCF7, 504 h, time 21 day, read-out: TGI
[10] = target: Cyclin-dependent kinase 6 (Homo sapiens) (UniProt Q00534); assay: HyT degrader activity at CDK6 in human MCF7 cells assessed as induction of CDK6 degradation at 10 uM incubated for 24 hrs by immunoblot analysis; type: cell-based
Sequence of Cyclin-dependent kinase 6 (Homo sapiens) (Q00534 whole entry): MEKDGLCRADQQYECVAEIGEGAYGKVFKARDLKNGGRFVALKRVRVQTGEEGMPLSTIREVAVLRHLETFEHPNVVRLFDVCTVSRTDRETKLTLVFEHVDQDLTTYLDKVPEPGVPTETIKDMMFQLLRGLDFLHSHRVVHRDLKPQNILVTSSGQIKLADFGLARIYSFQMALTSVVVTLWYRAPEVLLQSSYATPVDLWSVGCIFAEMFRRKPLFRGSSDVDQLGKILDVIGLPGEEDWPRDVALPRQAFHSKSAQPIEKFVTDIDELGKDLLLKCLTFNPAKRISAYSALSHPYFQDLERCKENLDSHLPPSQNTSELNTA

[11] = target: Cyclin-dependent kinase 6 (Homo sapiens) (UniProt Q00534); assay: HyT degrader activity at CDK6 in human MCF7 cells assessed as induction of CDK6 degradation at 0.1 to 10 uM incubated for 24 hrs by immunoblot analysis; type: cell-based; conditions: dose 0.1-10 µM
[12] = target: Histone deacetylase 1 (Homo sapiens) (UniProt Q13547); assay: HyT degrader activity at HDAC1 in human MCF7 cells assessed as induction of HDAC1 degradation by measuring decrease in HDAC1 level at 0.1 to 50 uM incubated for 24 hrs by immunoblot analysis; type: cell-based; conditions: dose 0.1-50 µM
Sequence of Histone deacetylase 1 (Homo sapiens) (Q13547 whole entry): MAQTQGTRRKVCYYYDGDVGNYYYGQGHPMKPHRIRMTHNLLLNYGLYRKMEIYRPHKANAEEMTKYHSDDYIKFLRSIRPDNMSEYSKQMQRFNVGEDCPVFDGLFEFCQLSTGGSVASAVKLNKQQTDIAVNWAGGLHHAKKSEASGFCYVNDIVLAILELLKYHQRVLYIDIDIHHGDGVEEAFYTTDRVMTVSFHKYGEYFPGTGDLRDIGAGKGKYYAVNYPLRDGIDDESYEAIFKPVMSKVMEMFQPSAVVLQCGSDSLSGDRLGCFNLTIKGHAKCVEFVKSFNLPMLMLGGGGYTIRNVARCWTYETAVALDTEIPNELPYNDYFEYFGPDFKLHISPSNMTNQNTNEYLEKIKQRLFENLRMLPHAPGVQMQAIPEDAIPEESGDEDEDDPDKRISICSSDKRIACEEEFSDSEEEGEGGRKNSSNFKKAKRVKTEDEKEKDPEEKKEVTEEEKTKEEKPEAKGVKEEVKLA

[13] = target: T2, Protein deacetylase HDAC6 (Homo sapiens) (UniProt Q9UBN7); assay: HyT degrader activity at HDAC6 in human MCF7 cells assessed as induction of HDAC6 degradation by measuring decrease in HDAC6 level at 0.1 to 10 uM incubated for 24 hrs by immunoblot analysis; type: cell-based; conditions: dose 0.1-10 µM
T2 sequence (whole entry): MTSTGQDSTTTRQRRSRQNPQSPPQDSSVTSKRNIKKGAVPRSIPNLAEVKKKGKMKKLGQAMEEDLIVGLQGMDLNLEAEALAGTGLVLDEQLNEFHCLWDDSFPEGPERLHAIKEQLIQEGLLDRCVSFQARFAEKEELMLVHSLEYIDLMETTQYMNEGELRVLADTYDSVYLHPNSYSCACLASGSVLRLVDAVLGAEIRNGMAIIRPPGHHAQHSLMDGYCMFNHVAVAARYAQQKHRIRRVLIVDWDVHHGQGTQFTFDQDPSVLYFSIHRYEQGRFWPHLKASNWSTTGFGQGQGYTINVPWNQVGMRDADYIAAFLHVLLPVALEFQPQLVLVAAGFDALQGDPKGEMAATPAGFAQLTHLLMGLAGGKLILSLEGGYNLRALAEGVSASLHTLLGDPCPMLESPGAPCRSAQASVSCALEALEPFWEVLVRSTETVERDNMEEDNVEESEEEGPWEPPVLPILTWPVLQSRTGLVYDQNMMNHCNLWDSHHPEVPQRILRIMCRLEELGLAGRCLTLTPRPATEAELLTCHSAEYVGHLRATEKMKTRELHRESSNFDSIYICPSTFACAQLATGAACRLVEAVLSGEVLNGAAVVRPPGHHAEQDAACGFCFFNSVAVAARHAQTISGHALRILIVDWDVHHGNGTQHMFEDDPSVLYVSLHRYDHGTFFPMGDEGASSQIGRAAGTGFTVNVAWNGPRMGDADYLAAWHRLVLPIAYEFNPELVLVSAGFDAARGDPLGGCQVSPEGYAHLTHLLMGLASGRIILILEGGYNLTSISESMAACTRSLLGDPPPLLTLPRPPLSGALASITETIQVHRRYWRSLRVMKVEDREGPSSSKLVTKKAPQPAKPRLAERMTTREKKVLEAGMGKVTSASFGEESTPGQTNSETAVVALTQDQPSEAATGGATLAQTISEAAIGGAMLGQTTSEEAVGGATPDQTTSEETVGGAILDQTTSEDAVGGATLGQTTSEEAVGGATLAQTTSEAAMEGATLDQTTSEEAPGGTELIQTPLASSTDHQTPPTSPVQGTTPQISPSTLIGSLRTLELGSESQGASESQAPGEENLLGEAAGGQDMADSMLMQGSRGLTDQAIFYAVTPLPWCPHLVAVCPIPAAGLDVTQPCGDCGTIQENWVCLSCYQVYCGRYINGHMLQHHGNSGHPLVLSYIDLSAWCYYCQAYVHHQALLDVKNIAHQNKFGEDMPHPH

[14] = target: T3, Histone deacetylase (Homo sapiens) (UniProt Q13547+O15379+Q9UBN7+Q92769+Q9UQL6+Q8WUI4+Q9BY41+Q96DB2+P56524+Q9UKV0+Q969S8); assay: HyT degrader activity at HDAC in human MCF7 cells assessed as induction of HDAC degradation by measuring increase in acetylated alpha-tubulin level at 0.1 to 50 uM incubated for 24 hrs by immunoblot analysis; type: cell-based; conditions: dose 0.1-50 µM
[15] = target: Histone deacetylase 2 (Homo sapiens) (UniProt Q92769); assay: HyT degrader activity at HDAC2 in human MCF7 cells assessed as induction of HDAC2 degradation by measuring decrease in HDAC2 level at 0.1 to 50 uM incubated for 24 hrs by immunoblot analysis; type: cell-based; conditions: dose 0.1-50 µM
Sequence of Histone deacetylase 2 (Homo sapiens) (Q92769 whole entry): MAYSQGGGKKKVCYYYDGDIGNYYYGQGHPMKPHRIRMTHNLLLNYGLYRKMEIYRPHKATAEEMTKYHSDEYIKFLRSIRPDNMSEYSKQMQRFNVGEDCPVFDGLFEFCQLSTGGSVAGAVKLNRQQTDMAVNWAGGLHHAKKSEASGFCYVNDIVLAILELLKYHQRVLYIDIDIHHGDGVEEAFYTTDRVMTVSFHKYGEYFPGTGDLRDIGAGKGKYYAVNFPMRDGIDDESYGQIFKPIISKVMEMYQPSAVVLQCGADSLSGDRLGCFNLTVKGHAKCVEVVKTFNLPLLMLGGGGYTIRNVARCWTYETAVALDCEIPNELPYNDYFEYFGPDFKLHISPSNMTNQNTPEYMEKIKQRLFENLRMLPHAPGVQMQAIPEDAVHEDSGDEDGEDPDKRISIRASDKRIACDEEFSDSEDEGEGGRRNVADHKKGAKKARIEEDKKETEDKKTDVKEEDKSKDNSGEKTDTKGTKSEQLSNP

[16] = target: Histone deacetylase 1 (Homo sapiens) (UniProt Q13547); assay: HyT degrader activity at HDAC1 in human MCF7 cells assessed as induction of HDAC1 degradation at 10 uM incubated for 24 hrs by immunoblot analysis; type: cell-based
[17] = target: T3, Histone deacetylase (Homo sapiens); assay: HyT degrader activity at HDAC in human MCF7 cells assessed as induction of HDAC degradation by measuring increase in acetylated histone H3 level at 0.1 to 50 uM incubated for 24 hrs by immunoblot analysis; type: cell-based; conditions: dose 0.1-50 µM

O=C(c1ccc(OCCCNC(=O)C23CC4CC(CC(C4)C2)C3)cc1)c1c(-c2ccc(O)cc2)sc2cc(O)ccc12
inhibition (INH) (MCF7 [1]): 70.8%
pIC50 (MCF7 [2]): < 4.30
pIC50 (MCF7 [3]): 5.02
pIC50 (MCF7 [4]): 4.80
Activity [5]: 77.5%
Activity [6]: Active
inhibition (INH) (MCF7 [7]): 57.9%
inhibition (INH) (MCF7 [8]): 41.7%

C[C@]12CC[C@@H]3c4ccc(O)cc4C[C@@H](CCCCCCCCC[S+]([O-])CCCC(F)(F)C(F)(F)F)[C@H]3[C@@H]1CC[C@@H]2O (stereo partly specified) [FULVESTRANT]
inhibition in vivo at 5 mg/kg (MCF7 [9]): 87%

CC(=O)c1c(C)c2cnc(NCCCNC(=O)[C@@]3(C)OC4O[C@@]5(C)CCC6[C@H](C)CCC3[C@@]46OO5)nc2n(C2CCCC2)c1=O (single isomer, unassigned)
pIC50 (MCF7 [3]): 5.30
Activity [10]: 73%
Activity [11]: Active

C[C@@H]1CCC2[C@]34OO[C@](C)(CCC13)OC4O[C@]2(C)C(=O)NCCOc1ccc(C(=O)c2c(-c3ccc(O)cc3)sc3cc(O)ccc23)cc1 (single isomer, unassigned)
inhibition (INH) (MCF7 [1]): 42.6%
pIC50 (MCF7 [3]): < 4.00

C[C@@H]1CCC2[C@]34OO[C@](C)(CCC13)O[C@@H]4O[C@]2(C)C(=O)NCCCCOc1ccc(C(=O)c2c(-c3ccc(O)cc3)sc3cc(O)ccc23)cc1 (stereo partly specified)
inhibition (INH) (MCF7 [1]): 63.5%
pIC50 (MCF7 [3]): 4.94

O=C(c1ccc(OCCN2CCCCC2)cc1)c1c(-c2ccc(O)cc2)sc2cc(O)ccc12 [RALOXIFENE]
inhibition in vivo at 5 mg/kg (MCF7 [9]): 68.8%

C[C@@H]1CCC2[C@]34OO[C@](C)(CCC13)O[C@@H]4O[C@]2(C)C(=O)NCCCCCCOc1ccc(C(=O)c2c(-c3ccc(O)cc3)sc3cc(O)ccc23)cc1 (stereo partly specified)
inhibition (INH) (MCF7 [1]): 57.1%
pIC50 (MCF7 [3]): 4.34

C[C@@H]1CCC2[C@]34OO[C@](C)(CCC13)OC4O[C@]2(C)C(=O)NCCCC(=O)Nc1ccc(NC(=O)CCCCCCC(=O)NO)cc1 (single isomer, unassigned)
Activity [12]: Active
Activity [13]: Active
Activity [14]: Active
pIC50 (MCF7 [3]): 5.28
Activity [15]: Active
Activity [16]: 84%
Activity [17]: Active
